According to patent US9725474B2, “Modified nucleic acid” (TAKEDA PHARMACEUTICAL COMPANY LIMITED, priority 2012, dated 2017):
Values joined by “and” are separate entries in the source; they are usually repeats but may differ in a detail not shown here. Equal entries are not always repeated.

Tested on: GL3 luciferase gene
Assay: Evaluation of each siRNA using Dual-Luc reporter system (expression-suppressive activity)
Type: cell-based, Human
Details: for IC50: HCT116 cells transfected with vector OFF#085 or OFF#086, siRNA reverse transfection with Lipofectamine RNAiMAX, two-night culture, luciferase activity (Renilla/firefly), Dual-Glo, read-out: 50% inhibition concentration; for suppressive activity against luciferase expression compared with control RNA: Dual-Luc reporter system, HCT116 cells, comparison drawn from Table 1
Experimental: Each siRNA was evaluated using a Dual-Luc reporter system as described below.
A restriction enzyme sequence was added to a sequence containing a 19-base sequence complementary to the antisense strand of siRNA against the GL3 luciferase gene (Elbashir S M et al., Nature, Vol. 411, 24 May 2001, 494-498), and its 5′-flanking 10 bases and 3′-flanking 10 bases. The resulting sequence was incorporated into the XhoI/NotI site of a psiCHECK2 plasmld (Promega KK) either in a forward direction (sequence A) or in a reverse direction (sequence B) to construct vectors for the expression of firefly Iuciferase and Renilla luciferase, OFF#085 and OFF#086, respectively.
Human colon cancer cell line HCT116 cells (ATCC) were inoculated at a density of 3×10^6 cells/10 ml/75 cm^2 flask. After overnight culture at 37° C. in 5% CO2, the cells were transfected with the vector OFF#085 or OFF#086 obtained in the preceding paragraph 1) using FuGENE 6 (F. Hoffmann-La Roche Ltd.) and further cultured overnight. Each siRNA synthesized in Example 5 and Comparative Example was diluted with PBS into two serial dilutions of 3.3 nM (final) and 0.0043 nM or 12 serial dilutions from 10 nM to 56 fM and used in reverse transfection of 1.6×10^4 cells/100 μL/well using Lipofectamine RNAiMAX reagent (Invitrogen Corp.). After two-night culture, firefly luciferase activity and Renilla luciferase activity were measured using Dual-Glo Luc Assay kit (Promega KK) according to the attached document. When the luciferase activity (Renilla/firefly) of cells reverse-transfected with 10 nM BLOCK-iT™ Alexa Fluor® Red Fluorescent Oligo (Invitrogen Corp.) was defined as 100%, the luciferase activity of the cells transfected with each siRNA was calculated. The IC50 value was calculated using GraphPad Prism 5.

Substance	IC50	suppressive activity against luciferase expression compared with control RNA
Control RNA: Control siRNA of sense strand SEQ ID NO: 4 and antisense strand SEQ ID NO: 5, free from compound 11 or 22 (sense CUUACGCUGAGUACUUCGATT; antisense UCGAAGUACUCAGCGUAAGTT; chemistry not fully specified) [reference compound]	0.024 nM and 0.012 nM	–
siRNA (2): siRNA of sense strand SEQ ID NO: 1 and antisense strand SEQ ID NO: 3 containing one formula (II) partial structure U(K2) induced from compound 22 (sense CUUACGCUGAGUACUUCGATT; antisense UCGAAGUACUCAGCGUAAGTT; chemistry not fully specified)	0.009 nM	higher suppressive activity
siRNA (1): siRNA of sense strand SEQ ID NO: 1 and antisense strand SEQ ID NO: 2 containing one formula (II) partial structure U(K) induced from compound 11 (sense CUUACGCUGAGUACUUCGATT; antisense UCGAAGUACUCAGCGUAAGTT; chemistry not fully specified)	0.007 nM	higher suppressive activity
